Data reported in ChEMBL document CHEMBL1201862, “PubChem BioAssay data set” (2004).
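Assay format: 96-well plates, 48-hour exposure. GI50 is the concentration that inhibits growth by half.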 The source made the active and inactive calls. No stated cut-off is given here; in the data, active = GI50 up to about 1.1 µM and inactive = higher.

Assays:
Experiment in all cases: DTP human tumour cell line panel, 48 h
SNB-19 = tested on: SNB-19
SW-620 = tested on: SW-620
A549 = tested on: A549
NCI-H522 = tested on: NCI-H522
COLO 205 = tested on: COLO 205
M14 = tested on: M14
EKVX = tested on: EKVX
Malme-3M = tested on: Malme-3M
UACC-62 = tested on: UACC-62
SN12C = tested on: SN12C
MDA-MB-435 = tested on: MDA-MB-435
786-0 = tested on: 786-0
MDA-N = tested on: MDA-N
HT-29 = tested on: HT-29
SK-MEL-2 = tested on: SK-MEL-2
SF-295 = tested on: SF-295
NCI/ADR-RES = tested on: NCI/ADR-RES
OVCAR-3 = tested on: OVCAR-3
A498 = tested on: A498
SK-MEL-28 = tested on: SK-MEL-28
K562 = tested on: K562
KM12 = tested on: KM12
TK-10 = tested on: TK-10
LOX IMVI = tested on: LOX IMVI
UO-31 = tested on: UO-31
HL-60 = tested on: HL-60
MDA-MB-231 = tested on: MDA-MB-231
HOP-62 = tested on: HOP-62
MCF7 = tested on: MCF7
PC-3 = tested on: PC-3
HOP-92 = tested on: HOP-92
T47D = tested on: T47D
Hs-578T = tested on: Hs-578T
CCRF-CEM = tested on: CCRF-CEM
DU-145 = tested on: DU-145
OVCAR-8 = tested on: OVCAR-8
NCI-H460 = tested on: NCI-H460
UACC-257 = tested on: UACC-257
RXF 393 = tested on: RXF 393
ACHN = tested on: ACHN
OVCAR-5 = tested on: OVCAR-5
BT-549 = tested on: BT-549
NCI-H23 = tested on: NCI-H23
SF-268 = tested on: SF-268
SR = tested on: SR
SK-MEL-5 = tested on: SK-MEL-5
U-251 = tested on: U-251
HCT-15 = tested on: HCT-15
CAKI-1 = tested on: CAKI-1
HCT-116 = tested on: HCT-116
HCC 2998 = tested on: HCC 2998
OVCAR-4 = tested on: OVCAR-4
SF-539 = tested on: SF-539
SNB-75 = tested on: SNB-75
RPMI-8226 = tested on: RPMI-8226
IGROV-1 = tested on: IGROV-1
SK-OV-3 = tested on: SK-OV-3
NCI-H226 = tested on: NCI-H226
MOLT-4 = tested on: MOLT-4

Nc1cc(S(=O)(=O)O)cc2ccc(S(=O)(=O)O)cc12
GI50 (SNB-19): > 100 µM (inactive)
GI50 (SW-620): > 100 µM (inactive)
GI50 (A549): > 100 µM (inactive)
GI50 (NCI-H522): > 100 µM (inactive)
GI50 (COLO 205): > 100 µM (inactive)
GI50 (M14): > 100 µM (inactive)
GI50 (EKVX): > 100 µM (inactive)
GI50 (Malme-3M): > 100 µM (inactive)
GI50 (UACC-62): > 100 µM (inactive)
GI50 (SN12C): > 100 µM (inactive)
GI50 (MDA-MB-435): > 100 µM (inactive)
GI50 (786-0): > 100 µM (inactive)
GI50 (MDA-N): > 100 µM (inactive)
GI50 (HT-29): > 100 µM (inactive)
GI50 (SK-MEL-2): > 100 µM (inactive)
GI50 (SF-295): > 100 µM (inactive)
GI50 (NCI/ADR-RES): > 100 µM (inactive)
GI50 (OVCAR-3): > 100 µM (inactive)
GI50 (A498): > 100 µM (inactive)
GI50 (SK-MEL-28): > 100 µM (inactive)
GI50 (K562): > 100 µM (inactive)
GI50 (KM12): > 100 µM (inactive)
GI50 (TK-10): > 100 µM (inactive)
GI50 (LOX IMVI): > 100 µM (inactive)
GI50 (UO-31): > 100 µM (inactive)
GI50 (HL-60): > 100 µM (inactive)
GI50 (MDA-MB-231): > 100 µM (inactive)
GI50 (HOP-62): > 100 µM (inactive)
GI50 (MCF7): > 100 µM (inactive)
GI50 (PC-3): > 100 µM (inactive)
GI50 (HOP-92): > 100 µM (inactive)
GI50 (T47D): > 100 µM (inactive)
GI50 (Hs-578T): > 100 µM (inactive)
GI50 (CCRF-CEM): > 100 µM (inactive)
GI50 (DU-145): > 100 µM (inactive)
GI50 (OVCAR-8): > 100 µM (inactive)
GI50 (NCI-H460): > 100 µM (inactive)
GI50 (UACC-257): > 100 µM (inactive)
GI50 (RXF 393): > 100 µM (inactive)
GI50 (ACHN): > 100 µM (inactive)
GI50 (OVCAR-5): > 100 µM (inactive)
GI50 (BT-549): > 100 µM (inactive)
GI50 (NCI-H23): > 100 µM (inactive)
GI50 (SF-268): > 100 µM (inactive)
GI50 (SR): > 100 µM (inactive)
GI50 (SK-MEL-5): > 100 µM (inactive)
GI50 (U-251): > 100 µM (inactive)
GI50 (HCT-15): > 100 µM
GI50 (CAKI-1): > 100 µM (inactive)
GI50 (HCT-116): > 100 µM (inactive)
GI50 (HCC 2998): > 100 µM (inactive)
GI50 (OVCAR-4): > 100 µM (inactive)
GI50 (SF-539): > 100 µM (inactive)
GI50 (SNB-75): > 100 µM (inactive)
GI50 (RPMI-8226): > 100 µM (inactive)
GI50 (IGROV-1): > 100 µM (inactive)
GI50 (SK-OV-3): > 100 µM (inactive)

CN(C)CCNC(=O)c1ccc(NC(=O)c2nc([N+](=O)[O-])cn2C)cc1
GI50 (SW-620): > 100 µM (inactive)
GI50 (A549): > 100 µM (inactive)
GI50 (NCI-H522): > 100 µM (inactive)
GI50 (COLO 205): > 100 µM (inactive)
GI50 (M14): > 100 µM (inactive)
GI50 (Malme-3M): > 100 µM (inactive)
GI50 (UACC-62): > 100 µM (inactive)
GI50 (SN12C): > 100 µM (inactive)
GI50 (MDA-MB-435): > 100 µM (inactive)
GI50 (786-0): > 100 µM (inactive)
GI50 (MDA-N): > 100 µM (inactive)
GI50 (HT-29): > 100 µM (inactive)
GI50 (SK-MEL-2): > 100 µM (inactive)
GI50 (SF-295): > 100 µM (inactive)
GI50 (NCI/ADR-RES): > 100 µM (inactive)
GI50 (OVCAR-3): > 100 µM (inactive)
GI50 (A498): > 100 µM (inactive)
GI50 (SK-MEL-28): > 100 µM (inactive)
GI50 (K562): > 100 µM (inactive)
GI50 (NCI-H226): > 100 µM (inactive)
GI50 (KM12): > 100 µM (inactive)
GI50 (TK-10): > 100 µM (inactive)
GI50 (LOX IMVI): > 100 µM (inactive)
GI50 (UO-31): > 100 µM (inactive)
GI50 (HL-60): > 100 µM (inactive)
GI50 (MDA-MB-231): > 100 µM (inactive)
GI50 (HOP-62): > 100 µM (inactive)
GI50 (MCF7): > 100 µM (inactive)
GI50 (PC-3): > 100 µM (inactive)
GI50 (HOP-92): > 100 µM (inactive)
GI50 (T47D): > 100 µM (inactive)
GI50 (Hs-578T): > 100 µM (inactive)
GI50 (CCRF-CEM): > 100 µM (inactive)
GI50 (DU-145): > 100 µM (inactive)
GI50 (OVCAR-8): > 100 µM (inactive)
GI50 (NCI-H460): > 100 µM (inactive)
GI50 (UACC-257): > 100 µM (inactive)
GI50 (MOLT-4): > 100 µM (inactive)
GI50 (RXF 393): > 100 µM (inactive)
GI50 (ACHN): > 100 µM (inactive)
GI50 (OVCAR-5): > 100 µM (inactive)
GI50 (BT-549): > 100 µM (inactive)
GI50 (NCI-H23): > 100 µM (inactive)
GI50 (SF-268): > 100 µM (inactive)
GI50 (SR): > 100 µM (inactive)
GI50 (SK-MEL-5): > 100 µM (inactive)
GI50 (U-251): > 100 µM (inactive)
GI50 (HCT-15): > 100 µM
GI50 (CAKI-1): > 100 µM (inactive)
GI50 (HCT-116): > 100 µM (inactive)
GI50 (OVCAR-4): > 100 µM (inactive)
GI50 (SF-539): > 100 µM (inactive)
GI50 (SNB-75): > 100 µM (inactive)
GI50 (RPMI-8226): > 100 µM (inactive)
GI50 (IGROV-1): > 100 µM (inactive)
GI50 (SK-OV-3): > 100 µM (inactive)

Nc1c(Cl)ncnc1N[C@@H]1C[C@H]1CO
GI50 (SNB-19): > 100 µM (inactive)
GI50 (SW-620): > 100 µM (inactive)
GI50 (A549): > 100 µM (inactive)
GI50 (NCI-H522): > 100 µM (inactive)
GI50 (COLO 205): > 100 µM (inactive)
GI50 (M14): > 100 µM (inactive)
GI50 (EKVX): > 100 µM (inactive)
GI50 (UACC-62): > 100 µM (inactive)
GI50 (SN12C): > 100 µM (inactive)
GI50 (MDA-MB-435): > 100 µM (inactive)
GI50 (786-0): > 100 µM (inactive)
GI50 (MDA-N): > 100 µM (inactive)
GI50 (HT-29): > 100 µM (inactive)
GI50 (SK-MEL-2): > 100 µM (inactive)
GI50 (SF-295): > 100 µM (inactive)
GI50 (NCI/ADR-RES): > 100 µM (inactive)
GI50 (OVCAR-3): > 100 µM (inactive)
GI50 (A498): > 100 µM (inactive)
GI50 (SK-MEL-28): > 100 µM (inactive)
GI50 (K562): > 100 µM (inactive)
GI50 (KM12): > 100 µM (inactive)
GI50 (TK-10): > 100 µM (inactive)
GI50 (LOX IMVI): > 100 µM (inactive)
GI50 (UO-31): > 100 µM (inactive)
GI50 (HL-60): > 100 µM (inactive)
GI50 (MDA-MB-231): > 100 µM (inactive)
GI50 (HOP-62): > 100 µM (inactive)
GI50 (MCF7): > 100 µM (inactive)
GI50 (PC-3): > 100 µM (inactive)
GI50 (HOP-92): > 100 µM (inactive)
GI50 (T47D): > 100 µM (inactive)
GI50 (Hs-578T): > 100 µM (inactive)
GI50 (CCRF-CEM): > 100 µM (inactive)
GI50 (DU-145): > 100 µM (inactive)
GI50 (OVCAR-8): > 100 µM (inactive)
GI50 (NCI-H460): > 100 µM (inactive)
GI50 (UACC-257): > 100 µM (inactive)
GI50 (MOLT-4): > 100 µM (inactive)
GI50 (RXF 393): > 100 µM (inactive)
GI50 (ACHN): > 100 µM (inactive)
GI50 (OVCAR-5): > 100 µM (inactive)
GI50 (BT-549): > 100 µM (inactive)
GI50 (NCI-H23): > 100 µM (inactive)
GI50 (SF-268): > 100 µM (inactive)
GI50 (SR): > 100 µM (inactive)
GI50 (SK-MEL-5): > 100 µM (inactive)
GI50 (U-251): > 100 µM (inactive)
GI50 (HCT-15): > 100 µM
GI50 (CAKI-1): > 100 µM (inactive)
GI50 (HCT-116): > 100 µM (inactive)
GI50 (HCC 2998): > 100 µM (inactive)
GI50 (OVCAR-4): > 100 µM (inactive)
GI50 (SF-539): > 100 µM (inactive)
GI50 (SNB-75): 0.494 µM (active)
GI50 (IGROV-1): > 100 µM (inactive)
